T1: MBP-fused Drosophila EB1 (Drosophila, UniProt Q9XZ57 1-290)
T1 sequence (looked up): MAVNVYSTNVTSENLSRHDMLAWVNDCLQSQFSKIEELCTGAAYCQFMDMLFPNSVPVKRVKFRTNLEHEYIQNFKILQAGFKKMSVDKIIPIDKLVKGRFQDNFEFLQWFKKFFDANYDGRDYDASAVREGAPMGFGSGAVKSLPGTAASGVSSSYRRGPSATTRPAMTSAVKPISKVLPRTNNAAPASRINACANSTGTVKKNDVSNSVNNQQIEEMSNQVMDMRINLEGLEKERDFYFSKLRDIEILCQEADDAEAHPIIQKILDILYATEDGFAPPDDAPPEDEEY


Assays:
[1] = target: human EB1; conditions: read-out: Kd with human EB1, ref Honnappa et al. 2005; cited from earlier work
[2] = target: T1, MBP-fused Drosophila EB1; assay: ITC

Kd [2] [nM]	Molecule	Kd [1] [µM]
–	adenomatous polyposis coli protein: native human EB1-interacting protein	~5
~570	RTRGRSRIPRWVGRRG [aptamer Perfect peptide]	–

From paper PMC3967968 (Molecular Biology of the Cell, 2014)
